This is an account of results in PubChem BioAssay AID366 (MTDP, 2006).

Each structure is given as a SMILES string. Active and inactive are the calls of the source. No rule for the calls is given here.

Sequence of Ribonuclease H1 (Homo sapiens) (O60930 whole entry, looked up): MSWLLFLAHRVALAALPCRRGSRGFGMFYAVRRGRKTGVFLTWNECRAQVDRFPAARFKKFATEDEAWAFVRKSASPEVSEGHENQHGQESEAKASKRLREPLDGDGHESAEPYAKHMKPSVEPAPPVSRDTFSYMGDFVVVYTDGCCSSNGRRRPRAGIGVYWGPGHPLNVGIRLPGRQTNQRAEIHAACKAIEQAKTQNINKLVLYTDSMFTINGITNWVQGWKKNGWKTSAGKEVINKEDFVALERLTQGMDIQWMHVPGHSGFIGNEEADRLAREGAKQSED

This assay has as its target Ribonuclease H1 (Homo sapiens) (UniProt O60930). The experiment in a line: human RNase H1 inhibitors, dose response, biochemical, FRET RNA/DNA duplex cleavage (AID 366).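 Also: potency is for inhibitors that lower RNA cleavage and so lower fluorescence.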 The settings on record: fluorescence.
In the case of `Nc1cc(S(N)(=O)=O)ccc1SSc1ccc(S(N)(=O)=O)cc1N`, the IC50 entry was “inactive”.

As to `Cc1ccc(C)n1-c1ccc(O)c(C(=O)O)c1`, the IC50 was 0.9 µM.

Consider `COc1cc(/C=N\c2sc3c(c2C(=O)NCc2ccccc2)CCCC3)cc(Cl)c1O`, for which the IC50 is 2 µM.

Take `N#C/C(=C\Nc1ccc(S(=O)(=O)Nc2nccs2)cc1)c1nc(-c2ccc(Cl)cc2)cs1`: the IC50 is 0.5 µM.

On to `COC(=O)c1cc2c3c(ccc2[nH]1)N(C(=O)c1cc2c4c(ccc2[nH]1)N(C(=O)c1cc2c5c(ccc2[nH]1)N(C(N)=O)CC5)CC4)CC3`, for which the IC50 is 0.8 µM.

As for `Oc1cc(O)c2cc(O)c(-c3ccc(O)c(O)c3)[o+]c2c1`, the IC50 was 0.1 µM.

`O=C1C(Cl)=C(NC(=O)c2ccccc2)C(=O)C(Cl)=C1NC(=O)c1ccccc1`: the IC50 result is “inactive”.

Take `Nc1c(S(=O)(=O)O)cc(Nc2cccc(S(N)(=O)=O)c2)c2c1C(=O)c1ccccc1C2=O`: the IC50 is 2.6 µM.

`CN(C)CS/C(N)=N/C(O)C(Cl)(Cl)Cl` (configuration not stated): the IC50 entry is “inactive”.

As to `Cc1ccc(-c2c(C#N)c(SCC(=O)c3ccc(O)c(O)c3)nc3c2CCCC3)o1`, the IC50 is 1.5 µM.

With `C[C@]12CC[C@H]3[C@@H](CCC4=CC(=O)CC[C@@]43C)[C@@H]1CC[C@@H]2C(=O)COS(=O)(=O)c1ccc(Br)cc1`, the IC50 is 1.1 µM.

As to `O=C(O)c1cc(-c2ccc(/C=C3/Sc4ccccc4C3=O)o2)ccc1O`, the half-inhibitory concentration (IC50) is 0.4 µM.

With `O=C1C=CC(=NS(=O)(=O)c2ccc(Cl)c([N+](=O)[O-])c2)C=C1`, the IC50 is 2.1 µM.

Take `Cc1cc(C)c2c(=O)[nH]c(SCC(=O)c3ccc(O)c(O)c3)nc2n1`: the IC50 is 9 µM.

On to `CCCc1cc(=O)oc2c3c(c4c(c12)OC(C)(C)C=C4)O[C@H](C)[C@@H](C)[C@H]3OC`, for which the IC50 was 4.9 µM.

As for `Cc1cc(Br)ccc1N1C(=O)/C(=C/c2ccco2)C(=O)NC1=S`, the IC50 was 0.8 µM.

Consider `O=C1C=CC(=O)C(c2cccc(Cl)c2)=C1`, for which the IC50 was 3.9 µM.

For the compound `O=C(O)/C=C/c1c2ccc(=O)c(O)c-2oc2c(O)c(O)ccc12`, the IC50 is 0.05 µM.

As to `O=C1NC(=S)N(c2cccc(Cl)c2)C(=O)/C1=C\C=C\c1ccco1`, the IC50 was 6 µM.

Regarding `c1ccc(C(c2cccc3c2ccc2ccccc23)C(c2ccccc2)c2cccc3c2ccc2ccccc23)cc1` (configuration not stated), the IC50 was 3.6 µM.

For `Cc1ccc(-c2n[nH]c(=S)n2/N=C/c2ccc(O)c(O)c2O)cc1`, the IC50 result was “inactive”.

As for `CCC(=O)Nc1sc2c(c1C(=O)Nc1ccc(OC)cc1)CCCCC2`, the IC50 was 9 µM.

For the compound `O=C1CC(=O)c2ccc3c4c(ccc1c24)C(=O)CC3=O`, the IC50 was 0.4 µM.

In the case of `Cc1cc(I)c2c(c1)C1C=CCC1C(C(=O)O)N2` (configuration not stated), the IC50 result is “inactive”.

With `CCOc1ccc(C2=CC(=O)C=CC2=O)cc1`, the IC50 was 5.7 µM.

Regarding `O=c1c(O)cccc2cc(O)c(O)c(O)c12`, the IC50 was 0.9 µM.

Consider `CC(C)=Cc1cc(CCC/C(C)=C/Cc2c(O)cc(C)c(C(=O)O)c2O)co1`, for which the half-inhibitory concentration (IC50) was 1.1 µM.

Take `Cc1c(Cl)ccc2c1NC(C(=O)O)C1CC=CC21` (configuration not stated): the IC50 is 2 µM.

Regarding `O=C(O)C1Nc2c(Cl)cc(Cl)cc2C2C=CCC12` (configuration not stated), the IC50 is 8.8 µM.

With `Cc1cc(O)c2c(c1O)C(=O)C13C(=C2O)C(=O)C2C(O)C1C1C(O)C3C(=O)C3=C(O)c4c(O)cc(C)c(O)c4C(=O)C321` (configuration not stated), the IC50 was 4 µM.

Consider `C=Cc1c(C)c2cc3[nH]c(cc4nc(cc5nc(cc1[nH]2)C(C)=C5CCC(=O)O)C(CCC(=O)O)=C4C)c(C)c3C=C`, for which the IC50 was 0.2 µM.

In the case of `Cc1cc(C(=O)O)ccc1-n1c(C)ccc1C`, the IC50 entry was “inactive”.

`NC(=O)c1c(NC(=O)CCc2ccccc2)sc2c1CCCCCC2`: the IC50 was 1.8 µM.

In the case of `O=C(Cc1ccccc1Cl)c1ccc(O)c(O)c1O`, the IC50 result was “inactive”.

For `Cc1c(O)c(Br)c(C)c(O)c1Br` (tested in a mixture with another compound), the IC50 result is “inactive”.

In the case of `CC(=O)C1=C(O)[C@@]2(O)C(=O)c3c(c(C)c4ccc(C)c(O)c4c3O)C[C@H]2[C@@H](N)C1=O`, the IC50 was 0.7 µM.

For `O=C1NC(=S)N(c2ccc(Cl)cc2)C(=O)/C1=C/c1ccc(Br)o1`, the IC50 is 0.6 µM.

Take `O=[N+]([O-])c1c(Cl)cccc1-c1c[nH]cc1Cl`: the IC50 was > 100 µM (inactive).

As to `CC1=C(CCC(=O)O)c2cc3nc(cc4[nH]c(cc5[nH]c(cc1n2)c(C)c5C(C)O)c(C)c4C(C)O)C(C)=C3CCC(=O)O` (configuration not stated), the IC50 is 0.4 µM.

For `O=C1c2ccccc2C(=O)c2c(NC3CCCCC3)ccc(Nc3ccc(S(=O)(=O)O)cc3)c21`, the IC50 was 2.2 µM.

As to `Oc1ccc(/C=N/Nc2nncc(-c3ccccc3)n2)c(O)c1O`, the IC50 is 1.1 µM.

Regarding `C[C@@H]1[C@H](O)c2c(c3c(c4c(-c5ccccc5)cc(=O)oc24)OC(C)(C)C=C3)O[C@@H]1C`, the IC50 is 4.8 µM.

On to `Cc1sc(NC(=O)c2ccco2)c(C(N)=O)c1C`, for which the IC50 entry is “inactive”.

For `NC(=O)c1c(NC(=O)COc2ccccc2)sc2c1CCCCC2`, the IC50 is 3.8 µM.

Turning to `C=CC1=C(C)C2=NC1=CC1=NC(=CC3=C(C)C4=C(O)C(C(=O)OC)C(=C5NC(=C2)C(C)C5CCC(=O)OC/C=C(\C)CCCC(C)CCCC(C)CCCC(C)C)C4=N3)C(CC)=C1C` (configuration not stated), the IC50 is > 100 µM (inactive).

Take `Ic1ccc2c(c1)N(c1ccccc1)c1cc(N=c3ccc4nc5ccc(I)cc5n(-c5ccccc5)c-4c3)ccc1N2`: the IC50 is 0.3 µM.

Take `CCOC(=O)Oc1c(OC)cc(C(=O)O[C@@H]2C[C@@H]3CN4CCc5c([nH]c6cc(OC)ccc56)[C@H]4C[C@@H]3[C@H](C(=O)OC)[C@H]2OC)cc1OC`: the IC50 result was “inactive”.
